In patent publication US20180338980A1, “AROMATIC SULFONAMIDE DERIVATIVES” (BAYER PHARMA AKTIENGESELLSCHAFT, priority 2015, published 2018):
pIC50: −log10 of the molar value.

Key:
P2X4 [1] = target: T1, P2X4 (Homo sapiens, UniProt Q99571); experiment: Assay A: human P2X4 receptor cell line, FLIPR calcium assay (Fluo-8, agonist Bz-ATP at EC80); type: cell-based; parameters: host or cells: HEK 293 (recombinant, constitutively expressing; with mitochondrial photina in Assay B); settings: for pIC50: Bz-ATP at EC80, average values; for Emax: read-out: human P2X4 Assay A avg Efficacy
T1 sequence (Q99571 1-388): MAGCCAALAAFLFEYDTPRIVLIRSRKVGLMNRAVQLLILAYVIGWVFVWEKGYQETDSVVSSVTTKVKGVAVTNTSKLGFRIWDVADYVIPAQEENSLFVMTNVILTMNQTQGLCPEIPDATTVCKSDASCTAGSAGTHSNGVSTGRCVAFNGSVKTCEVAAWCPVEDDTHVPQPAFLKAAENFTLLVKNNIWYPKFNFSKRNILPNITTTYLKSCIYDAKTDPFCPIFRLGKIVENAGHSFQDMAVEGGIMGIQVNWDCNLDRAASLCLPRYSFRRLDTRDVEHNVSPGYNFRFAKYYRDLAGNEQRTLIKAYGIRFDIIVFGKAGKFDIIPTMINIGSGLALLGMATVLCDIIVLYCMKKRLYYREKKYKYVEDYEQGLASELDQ
Procedure, shortened: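 Antagonism read as inhibition of the calcium response to EC80 Bz-ATP, by peak-over-basal Fluo-8 fluorescence over 120 s, normalized to DMSO wells. Human P2X4-HEK cells, dye-loaded 30 min in probenecid-containing HBSS/HEPES pH 7.4, received compound 30 min beforehand at room temperature, 0.5% DMSO final. Triplicates fitted for IC50, maximal inhibition and Hill slope.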

P2X4 [2] = target: T1, P2X4; experiment: Assay B: human P2X4 receptor cell line, mitochondrial photina luminescence (agonist Bz-ATP at EC50); type: cell-based; parameters: host or cells: HEK 293 (recombinant, constitutively expressing; with mitochondrial photina in Assay B); settings: for Emax: read-out: human P2X4 Assay B avg Efficacy
Procedure, shortened: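 Bz-ATP at its EC50 activates human P2X4 stably expressed in a cell line that also carries the calcium-sensitive photoprotein mitochondrial photina (coelenterazine cofactor). Light emitted on calcium influx is measured straight away in a luminometer. Reduced luminescence indicates antagonism.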

[3] = HEK human P2X4 cells, Fluo-8 FLIPR
[4] = percentage of maximal inhibition, HEK human P2X4 cells, Fluo-8 FLIPR
[5] = HEK human P2X4 cell line, photina luminescence, agonist Bz-ATP at EC50, average

Row | Structure (SMILES) | pIC50 (P2X4 [1]; [3]) | Emax (P2X4 [1]; [4]) [%] | pIC50 (P2X4 [2]; [5]) | Emax (P2X4 [2]; [5]) [%] | Emax (P2X4 [1]) [%] | Emax (P2X4 [2]) [%]
1 | NS(=O)(=O)c1cc(NC(=O)Cc2ccccc2C(F)F)ccc1Oc1cccc(Cl)c1 [Example 089, N-[4-(3-Chlorophenoxy)-3-sulfamoylphenyl]-2-[2-(difluoromethyl)phenyl]acetamide] | 6.99 | 85 | 6.84 | 66 | – | –
2 | NS(=O)(=O)c1cc(NC(=O)Cc2ccccc2Cl)ccc1OCC1CCC1 [Example 157, 2-(2-Chlorophenyl)-N-[4-(cyclobutylmethoxy)-3-sulfamoylphenyl]acetamide] | – | 67 | – | 55 | – | –
3 | NS(=O)(=O)c1cc(NC(=O)Cc2ccccc2Cl)ccc1Oc1cccc(C(F)(F)F)c1 [Example 005, 2-(2-Chlorophenyl)-N-{3-sulfamoyl-4-[3-(trifluoromethyl)phenoxy]phenyl}acetamide] | 7.11 | 94 | 7.05 | 89 | – | –
4 | NS(=O)(=O)c1cc(NC(=O)Cc2cccc(Cl)c2Cl)ccc1Oc1cccc(Cl)c1 [Example 103, N-[4-(3-Chlorophenoxy)-3-sulfamoylphenyl]-2-(2,3-dichlorophenyl)acetamide] | 6.68 | 78 | 6.85 | 70 | – | –
5 | CC(=O)c1cccc(Oc2ccc(NC(=O)Cc3ccccc3Cl)cc2S(N)(=O)=O)c1 [Example 007, N-[4-(3-Acetylphenoxy)-3-sulfamoylphenyl]-2-(2-chlorophenyl)acetamide] | 7.80 | 93 | 6.91 | 104 | – | –
6 | Cc1ccc(Br)c(Cl)c1CC(=O)Nc1ccc(Oc2cccc(Cl)c2)c(S(N)(=O)=O)c1 [Example 132, 2-(3-Bromo-2-chloro-6-methylphenyl)-N-[4-(3-chlorophenoxy)-3-sulfamoylphenyl]acetamide] | 6.27 | 72 | 6.19 | 102 | – | –
7 | COc1ccccc1CC(=O)Nc1ccc(Oc2cccc(Cl)c2)c(S(N)(=O)=O)c1 [Example 192, N-[4-(3-Chlorophenoxy)-3-sulfamoylphenyl]-2-(2-methoxyphenyl)acetamide] | – | 86 | – | 68 | – | –
8 | NS(=O)(=O)c1cc(NC(=O)Cc2ccccc2Cl)ccc1OCc1ccccn1 [Example 150, 2-(2-Chlorophenyl)-N-[4-(pyridin-2-ylmethoxy)-3-sulfamoylphenyl]acetamide] | – | 96 | – | 79 | – | –
9 | NS(=O)(=O)c1cc(NC(=O)Cc2ccc(Cl)cc2)ccc1Oc1cccc(Cl)c1 [Example 180, N-[4-(3-Chlorophenoxy)-3-sulfamoylphenyl]-2-(4-chlorophenyl)acetamide] | – | 76 | – | 63 | – | –
10 | NS(=O)(=O)c1cc(NC(=O)Cc2cc(OC(F)(F)C(F)F)ccc2Cl)ccc1Oc1cccc(Cl)c1 [Example 134, N-[4-(3-Chlorophenoxy)-3-sulfamoylphenyl]-2-[2-chloro-5-(1,1,2,2-tetrafluoroethoxy)phenyl]acetamide] | 6.16 | 83 | 5.87 | 77 | – | –
11 | CN(C)c1cccc(Oc2ccc(NC(=O)Cc3ccccc3Cl)cc2S(N)(=O)=O)c1 [Example 002, 2-(2-Chlorophenyl)-N-{4-[3-(dimethylamino)phenoxy]-3-sulfamoylphenyl}acetamide] | 7.54 | 96 | 7.10 | 81 | – | –
12 | COc1cccc(CC(=O)Nc2ccc(Oc3cccc(Cl)c3)c(S(N)(=O)=O)c2)c1 [Example 191, N-[4-(3-Chlorophenoxy)-3-sulfamoylphenyl]-2-(3-methoxyphenyl)acetamide] | 7.30 | 85 | 6.83 | 72 | – | –
13 | NS(=O)(=O)c1cc(NC(=O)Cc2ccc(F)cc2Cl)ccc1Oc1ccc(Cl)cc1 [Example 231, 2-(2-Chloro-4-fluorophenyl)-N-[4-(4-chlorophenoxy)-3-sulfamoylphenyl]acetamide] | 6.28 | 62 | 6.92 | 46 | – | –
14 | Cn1cc(Oc2ccc(NC(=O)Cc3ccccc3Cl)cc2S(N)(=O)=O)cn1 [Example 233, 2-(2-Chlorophenyl)-N-{4-[(1-methyl-1H-pyrazol-4-yl)oxy]-3-sulfamoylphenyl}acetamide] | – | 70 | – | 79 | – | –
15 | CC(C)c1cccc(Oc2ccc(NC(=O)Cc3ccccc3Cl)cc2S(N)(=O)=O)c1 [Example 004, 2-(2-Chlorophenyl)-N-[4-(3-isopropylphenoxy)-3-sulfamoylphenyl]acetamide] | 6.83 | 90 | 7.02 | 68 | – | –
16 | CC1(C)CC(Oc2ccc(NC(=O)Cc3ccccc3Cl)cc2S(N)(=O)=O)CC(C)(C)O1 [Example 269, 2-(2-Chlorophenyl)-N-{3-sulfamoyl-4-[(2,2,6,6-tetramethyltetrahydro-2H-pyran-4-yl)oxy]phenyl}acetamide] | < 4.60 | 37 | < 4.30 | 14 | – | –
17 | NS(=O)(=O)c1cc(NC(=O)Cc2ccccc2Cl)ccc1Oc1cncc(F)c1 [Example 080, 2-(2-Chlorophenyl)-N-{4-[(5-fluoropyridin-3-yl)oxy]-3-sulfamoylphenyl}acetamide] | 7.36 | 65 | 6.85 | 51 | – | –
18 | NS(=O)(=O)c1cc(NC(=O)Cc2ccccc2Cl)ccc1Oc1cccc(OC(F)(F)F)c1 [Example 006, 2-(2-Chlorophenyl)-N-{3-sulfamoyl-4-[3-(trifluoromethoxy)phenoxy]phenyl}acetamide] | 7.00 | 87 | 7.14 | 108 | – | –
19 | NS(=O)(=O)c1cc(NC(=O)Cc2ccccc2Cl)ccc1Oc1cccc(C(F)F)c1 [Example 031, 2-(2-Chlorophenyl)-N-{4-[3-(difluoromethyl)phenoxy]-3-sulfamoylphenyl}acetamide] | 7.62 | 76 | 6.91 | 71 | – | –
20 | NS(=O)(=O)c1cc(NC(=O)Cc2ccccc2Cl)ccc1Oc1cccc(N2CCCCC2=O)c1 [Example 176, 2-(2-Chlorophenyl)-N-{4-[3-(2-oxopiperidin-1-yl)phenoxy]-3-sulfamoylphenyl}acetamide] | 6.34 | 82 | 6.06 | 53 | – | –
21 | CC(C(=O)Nc1ccc(Oc2cccc(Cl)c2)c(S(N)(=O)=O)c1)c1ccccc1Cl (centres unmarked) [Example 196, N-[4-(3-Chlorophenoxy)-3-sulfamoylphenyl]-2-(2-chlorophenyl)propanamide] | – | – | – | – | 82 | 71
22 | N#Cc1cc(Oc2ccc(NC(=O)Cc3ccccc3Cl)cc2S(N)(=O)=O)ccc1F [Example 047, 2-(2-Chlorophenyl)-N-[4-(3-cyano-4-fluorophenoxy)-3-sulfamoylphenyl]acetamide] | 8.15 | 69 | 6.06 | 57 | – | –
23 | NS(=O)(=O)c1cc(NC(=O)Cc2ccccc2Br)ccc1Oc1cccc(Cl)c1 [Example 091, 2-(2-Bromophenyl)-N-[4-(3-chlorophenoxy)-3-sulfamoylphenyl]acetamide] | 7.57 | 75 | 7.28 | 58 | – | –
